These results are taken from PubChem BioAssay AID306 (DTP/NCI, 2004).

The subject of the experiment is BDF1 mice, L1210 Methyl-GAG-resistant leukemia, survival T/C. In words: NCI In Vivo Anticancer Drug Screen. Data for tumor model L1210 Leukemia resistant to Methyl-GAG; NSC 32946 (subcutaneous) in B6D2F1 (BDF1) mice. The note with it: endpoint: mean survival time, higher = longer survival. The method, then:
The antitumor activity of compounds was measured in mice bearing transplantable tumors. Survival or tumor size were measured and the results are expressed as the measurement made in the treated group (T) divided by the measurement made in the vehicle treated control group (C). The tumor model used in this assay is L1210 Leukemia resistant to Methyl-GAG; NSC 32946 (subcutaneous) in B6D2F1 (BDF1) mice

The mark [1] stands for this setting: dose: 62.5 mg/kg/injection, schedule: Q01DX Z (ip), vehicle: carboxymethylcellulose (CMC).
The mark [2] stands for this setting: dose: 125.0 mg/kg/injection, schedule: Q01DX Z (ip), vehicle: carboxymethylcellulose (CMC).
[3] abbreviates: dose: 250.0 mg/kg/injection, schedule: Q01DX Z (ip), vehicle: carboxymethylcellulose (CMC).
Where [4] appears, read: dose: 500.0 mg/kg/injection, schedule: Q01DX Z (ip), vehicle: carboxymethylcellulose (CMC).
Setting [5] is: dose: 1000.0 mg/kg/injection, schedule: Q01DX Z (ip), vehicle: carboxymethylcellulose (CMC).
Setting [6] is: dose: 0.12 mg/kg/injection, schedule: Q01DX Z (ip), vehicle: saline.
Where [7] appears, read: dose: 0.25 mg/kg/injection, schedule: Q01DX Z (ip), vehicle: saline.
The mark [8] stands for this setting: dose: 0.5 mg/kg/injection, schedule: Q01DX Z (ip), vehicle: saline.
Setting [9] is: dose: 1000.0 micrograms/kg/injection, schedule: Q01DX Z (ip), vehicle: saline.

Molecules are shown by their SMILES. “And” between values parts separate entries of the source, which are not always exact repeats. Equal entries are not always repeated. Toxic doses and inconclusive results are not listed.

With `CN(Cc1cnc2nc(N)nc(N)c2n1)c1ccc(C(=O)N[C@@H](CCC(=O)O)C(=O)O)cc1`, the T/C (dose: 0.31 mg/kg/injection, schedule: Q01DX Z (ip), vehicle: other) was 157 % of control and 164 % of control (2×); the T/C (dose: 0.43 mg/kg/injection, schedule: Q01DX Z (ip), vehicle: other) is 160 % of control; the T/C (dose: 0.62 mg/kg/injection, schedule: Q01DX Z (ip), vehicle: other) is 235 % of control and 245 % of control and 246 % of control; the T/C (dose: 0.87 mg/kg/injection, schedule: Q01DX Z (ip), vehicle: other) is 255 % of control; the T/C (dose: 1.25 mg/kg/injection, schedule: Q01DX Z (ip), vehicle: other) was 262 % of control and 270 % of control and 276 % of control; the T/C (dose: 1.5 mg/kg/injection, schedule: Q01DX Z (ip), vehicle: other) is 194 % of control. Moreover, the T/C (dose: 1.75 mg/kg/injection, schedule: Q01DX Z (ip), vehicle: other) is 301 % of control; the T/C (dose: 2.5 mg/kg/injection, schedule: Q01DX Z (ip), vehicle: other) is 178 % of control; the T/C (dose: 3.0 mg/kg/injection, schedule: Q01DX Z (ip), vehicle: other) was 234 % of control; the T/C (dose: 3.5 mg/kg/injection, schedule: Q01DX Z (ip), vehicle: other) is 116 % of control; the T/C (dose: 5.0 mg/kg/injection, schedule: Q01DX Z (ip), vehicle: other) is 95 % of control and 118 % of control.

In the case of `O=c1cn[nH]c(=O)[nH]1`, the T/C was 96 % of control under setting [1]; 106 % of control under setting [2]; 116 % of control under setting [3]; 114 % of control under setting [4]; 112 % of control under setting [5].

Regarding `COc1cc2c(c(OC)c1OC)-c1ccc(OC)c(=O)cc1[C@@H](NC(C)=O)CC2`, the T/C by setting is: under setting [6], 95 % of control; under setting [7], 96 % of control; under setting [8], 101 % of control.

Turning to `CC(=O)O[C@]1(C(C)=O)CC[C@H]2[C@@H]3C[C@H](C)C4=CC(=O)C=C[C@]4(C)[C@@]3(F)[C@@H](O)C[C@@]21C`, the T/C was 102 % of control (dose: 10.0 mg/kg/injection, schedule: Q01DX Z (sc), vehicle: steriod suspending solution); 105 % of control (dose: 20.0 mg/kg/injection, schedule: Q01DX Z (sc), vehicle: steriod suspending solution); 121 % of control (dose: 40.0 mg/kg/injection, schedule: Q01DX Z (sc), vehicle: steriod suspending solution); 114 % of control (dose: 80.0 mg/kg/injection, schedule: Q01DX Z (sc), vehicle: steriod suspending solution); 121 % of control (dose: 160.0 mg/kg/injection, schedule: Q01DX Z (sc), vehicle: steriod suspending solution); 115 % of control (dose: 320.0 mg/kg/injection, schedule: Q01DX Z (sc), vehicle: steriod suspending solution).

In the case of `S=P(N1CC1)(N1CC1)N1CC1`, the T/C was 111 % of control (dose: 0.62 mg/kg/injection, schedule: Q01DX Z (ip), vehicle: saline); 150 % of control (dose: 5.0 mg/kg/injection, schedule: Q01DX Z (ip), vehicle: saline); 110 % of control (dose: 10.0 mg/kg/injection, schedule: Q01DX Z (ip), vehicle: saline).

Consider `CCCCNc1ncnc2c1cnn2C`, for which the T/C runs as follows: (dose: 4.0 mg/kg/injection, schedule: Q01DX Z (ip), vehicle: carboxymethylcellulose (CMC)) 106 % of control; (dose: 8.0 mg/kg/injection, schedule: Q01DX Z (ip), vehicle: carboxymethylcellulose (CMC)) 106 % of control; (dose: 8.8 mg/kg/injection, schedule: Q01DX Z (ip), vehicle: carboxymethylcellulose (CMC)) 102 % of control; (dose: 15.6 mg/kg/injection, schedule: Q01DX Z (ip), vehicle: carboxymethylcellulose (CMC)) 110 % of control; (dose: 31.0 mg/kg/injection, schedule: Q01DX Z (ip), vehicle: carboxymethylcellulose (CMC)) 112 % of control; (dose: 31.2 mg/kg/injection, schedule: Q01DX Z (ip), vehicle: carboxymethylcellulose (CMC)) 107 % of control. Further, the T/C was 100 % of control under setting [1] and 98 % of control under setting [2].

For `O=C(Nc1ccc(NC2=NCCN2)cc1)c1ccc(C(=O)Nc2ccc(NC3=NCCN3)cc2)cc1`, the T/C is 101 % of control under setting [8]; 100 % of control (dose: 1.0 mg/kg/injection, schedule: Q01DX Z (ip), vehicle: saline); 100 % of control (dose: 2.0 mg/kg/injection, schedule: Q01DX Z (ip), vehicle: saline); 196 % of control (dose: 8.0 mg/kg/injection, schedule: Q01DX Z (ip), vehicle: saline); 113 % of control (dose: 32.0 mg/kg/injection, schedule: Q01DX Z (ip), vehicle: saline); 95 % of control (dose: 64.0 mg/kg/injection, schedule: Q01DX Z (ip), vehicle: saline).

Take `C1CN1c1nc(N2CC2)nc(N2CC2)n1`: the T/C was 96 % of control (dose: 62.5 micrograms/kg/injection, schedule: Q01DX Z (ip), vehicle: saline); 97 % of control (dose: 250.0 micrograms/kg/injection, schedule: Q01DX Z (ip), vehicle: saline); 110 % of control under setting [9].

For `CN(Cc1cnc2nc(N)nc(N)c2n1)c1c(Cl)cc(C(=O)NC(CCC(=O)O)C(=O)O)cc1Cl` (stereo not drawn), the T/C was 116 % of control (dose: 12.5 mg/kg/injection, schedule: Q01DX Z (ip), vehicle: carboxymethylcellulose (CMC)); 195 % of control (dose: 50.0 mg/kg/injection, schedule: Q01DX Z (ip), vehicle: carboxymethylcellulose (CMC)); 317 % of control (dose: 100.0 mg/kg/injection, schedule: Q01DX Z (ip), vehicle: carboxymethylcellulose (CMC)).

On to `NC(=O)N(CCCl)N=O`, for which the T/C is, setting by setting: (dose: 0.5 mg/kg/injection, schedule: Q01DX Z (ip), vehicle: carboxymethylcellulose (CMC)) 95 % of control; (dose: 1.0 mg/kg/injection, schedule: Q01DX Z (ip), vehicle: carboxymethylcellulose (CMC)) 96 % of control and 101 % of control; (dose: 2.0 mg/kg/injection, schedule: Q01DX Z (ip), vehicle: carboxymethylcellulose (CMC)) 100 % of control and 101 % of control.

In the case of `O=P1(N(CCCl)CCCl)NCCCO1` (stereo not drawn), the T/C reads like this: (dose: 6.25 mg/kg/injection, schedule: Q01DX Z (ip), vehicle: saline) 93 % of control; (dose: 12.5 mg/kg/injection, schedule: Q01DX Z (ip), vehicle: saline) 122 % of control and 123 % of control; (dose: 25.0 mg/kg/injection, schedule: Q01DX Z (ip), vehicle: saline) 254 % of control and 151 % of control; (dose: 50.0 mg/kg/injection, schedule: Q01DX Z (ip), vehicle: saline) 257 % of control and 98 % of control; (dose: 100.0 mg/kg/injection, schedule: Q01DX Z (ip), vehicle: saline) 90 % of control and 98 % of control.

For the compound `O=c1cnn(C2OC(CO)C(O)C2O)c(=O)[nH]1` (stereo not drawn), the T/C reads like this: (dose: 8.0 mg/kg/injection, schedule: Q01DX Z (ip), vehicle: water) 112 % of control; (dose: 16.0 mg/kg/injection, schedule: Q01DX Z (ip), vehicle: water) 122 % of control; (dose: 1000.0 mg/kg/injection, schedule: Q01DX Z (ip), vehicle: water) 110 % of control.

Consider `C[C@]12CC[C@H](OC3OC(CO)C(O)C(O)C3O)C[C@H]1CC[C@@H]1[C@@H]2CC[C@]2(C)[C@@H](C3=CCOC3=O)CC[C@]12O` (stereo partly drawn), for which the T/C is 94 % of control (dose: 0.06 mg/kg/injection, schedule: Q01DX Z (ip), vehicle: saline); 92 % of control under setting [6]; 91 % of control under setting [7]; 91 % of control under setting [8]; 90 % of control (dose: 4.0 mg/kg/injection, schedule: Q01DX Z (ip), vehicle: saline); 97 % of control (dose: 16.0 micrograms/kg/injection, schedule: Q01DX Z (ip), vehicle: saline). The T/C is, setting by setting: (dose: 32.0 micrograms/kg/injection, schedule: Q01DX Z (ip), vehicle: saline) 102 % of control; under setting [9], 107 % of control; (dose: 2000.0 micrograms/kg/injection, schedule: Q01DX Z (ip), vehicle: saline) 105 % of control.

`OCC1OC(n2cnc3c(Cl)ncnc32)C(O)C1O` (stereo not drawn): the T/C is, setting by setting: under setting [1], 96 % of control; under setting [2], 94 % of control; under setting [3], 99 % of control; under setting [4], 88 % of control and 102 % of control; under setting [5], 91 % of control.
